The test system of the assay is rat aortic rings. Put plainly: Phenylepherine (PE)-induced contraction of isolated rat aortic rings (isometric tension). The assay is classed as cell-based. From the text:
Male Sprague Dawley rats (250-275 g) were sacrificed by exsanguination and thoracic aortae were removed with care to avoid damage to the endothelium, dissected free of fat and connective tissue, and cut into transverse rings, each 5 mm in length (Kyong et al., 1992, Br. J. Pharmacol. 107:983-990; Yohtaro et al., 1987, Eur. J. Pharmacol. 131:75-78; Chang et al., 1992, Br. J. Pharmacol. 107:983-990; Oyama et al., 1986, Eur. J. Pharmacol. 132:75-78). The tissues were maintained in an oxygenated (95% O2; 5% CO2) solution of Krebs-Henseliet (KH) buffer (144 millimolar NaCl, 5.9 millimolar KCl, 1.6 millimolar CaCl2, 1.2 millimolar MgSO4, 1.2 millimolar KH2PO4, 25 millimolar NaHCO3, and 11.1 millimolar D-glucose). The aortic rings were mounted to record isometric tension in a 10 milliliter bath containing KH solution under continuous aeration. The aortic rings were equilibrated for 1.5 hours at 37° C. and maintained under a resting tension of 2 g throughout the experiment. Each aortic ring was then contracted by adding phenylepherine (PE) in stepwise increments raising the concentration of PE from 10^−10 molar to 10^−5 molar. […] In every experiment, aortic rings exposed to KH buffer alone were analyzed in parallel as controls. Isometric tension was evaluated using a force displacement transducer and recorded online using a computerized system (ExperimentiaAE, Budapest, Hungary).

Data on four molecules can be found in patent US7425534B2, “Compositions and methods for modulating muscle cell and tissue contractility” (The Trustees of the University of Pennsylvania, priority 2000, dated 2008).

For the molecule “ATF: amino terminal fragment of urokinase, amino acids 1-135, growth factor domain plus kringle, SEQ ID NO:4”, the “Contractility enhancing activity in the presence of suPAR” value (10 nM ATF + 10 nM suPAR (FIG. 3)) is given as “abolished”. For the setting “compare FIGS. 2 and 3”, the “Potency at enhancing vascular smooth muscle tissue contractility relative to tcuPA” value worked out at 6 fold.
Regarding “GFD: growth factor domain of uPA which binds to uPAR, SEQ ID NO:2 (SNELHQVPSNCDCLNGGTCVSNKYFSNIHWCNCPKKFGGQHCEIDKS; listed as Homo sapiens)”, the “Effect upon PE-induced aortic contraction / vasoconstriction” value (10 nM uPA species (FIGS. 5A, 5B; GFD 10 nanomolar)) is recorded as “did not enhance contractility”.
Broadly, the EC50 is the concentration needed to bring the measured effect to its halfway point. Read a low EC50 as higher potency in that assay. `CNC[C@H](O)c1cccc(O)c1` [PE, phenylepherine, reference compound] registered an EC50 (PE alone, K-H buffer, no uPA species) of 29 nM.

B1: uPA kringle: kringle domain of uPA, amino acids 47-135, SEQ ID NO:1 (protein, listed as Homo sapiens)
chain: KTCYEGNGHFYRGKASTDTMGRPCLPWNSATVLQQTYHAHRSDALQLGLGKHNYCRNPDNRRRPWCYVQVGLKPLVQECMVHDCADGK
Take B1: the “Direct induction of vasoconstriction” value (uPA kringle without PE effect (FIG. 4)) is given as “did not induce vasoconstriction directly”.
